Tests used:
CobW [1] = target: T1, CobW (Rhodobacter capsulatus, UniProt D5AV10); assay: GTP hydrolysis by anion-exchange chromatography, […] nm; type: biochemical; conditions: 20 uM CobW, 200 uM GTP, 2.7 mM Mg(II), 18 uM Co(II), HEPES pH 7.0, anaerobic; slow turnover
T1 construct: full length, untagged (natural His-rich region), initiator Met cleaved; E. coli BL21(DE3) pLysS; six cysteines
T1 sequence (D5AV10 2-348): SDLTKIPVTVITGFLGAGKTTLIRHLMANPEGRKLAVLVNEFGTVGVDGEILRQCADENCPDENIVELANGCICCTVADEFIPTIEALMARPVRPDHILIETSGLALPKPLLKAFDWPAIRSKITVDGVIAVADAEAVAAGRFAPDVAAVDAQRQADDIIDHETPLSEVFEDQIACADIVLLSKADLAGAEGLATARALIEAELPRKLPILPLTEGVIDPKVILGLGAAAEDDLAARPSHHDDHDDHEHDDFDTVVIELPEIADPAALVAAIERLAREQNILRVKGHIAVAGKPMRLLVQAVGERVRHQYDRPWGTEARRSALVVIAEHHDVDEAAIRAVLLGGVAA

CobW [2] = target: T1, CobW; assay: Co(II) titration UV-vis, nucleotide-induced metal site at […] nm; type: binding; conditions: 10 mM HEPES pH 7.0, 100 mM NaCl, 400 mM KCl, anaerobic, indirect read-out, no nucleotide constant
CobW [3] = target: T1, CobW; assay: Co(II) titration UV-vis at […] nm and gel filtration/ICP-MS; type: binding; conditions: 10 mM HEPES pH 7.0, 100 mM NaCl, 400 mM KCl, anaerobic, with or without Mg(II) 2.7 mM, indirect read-out, no nucleotide constant

With `Nc1nc2c(ncn2[C@@H]2O[C@H](COP(=O)(O)OP(=O)(O)OP(=O)(O)O)[C@@H](O)[C@H]2O)c(=O)[nH]1` [GTP] the “GTP hydrolysis by anion-exchange chromatography, 254 nm” value (CobW [1]) was “CobW-catalysed GTP hydrolysis is sufficiently slow such that nucleotides remain predominantly unhydrolysed” and the “Co(II) titration UV-vis, nucleotide-induced metal site at 339 nm” value (CobW [2]; Mg(II) 2.7 mM) was “binding of Mg^II and guanine nucleotides preassembles one distinct Co^II site in CobW”.
In the case of `Nc1nc2c(ncn2[C@@H]2O[C@H](COP(=O)(O)OP(=O)(O)OP(O)(O)=S)[C@@H](O)[C@H]2O)c(=O)[nH]1` [GTPγS], the “Co(II) titration UV-vis, nucleotide-induced metal site at 339 nm” value (CobW [2]; with or without Mg(II) 2.7 mM) is reported as “Equivalent experiments performed with GTP and an alternate stable analogue, GTPγS, generated indistinguishable spectra”.
`Nc1nc2c(ncn2[C@@H]2O[C@H](COP(=O)(O)OP(=O)(O)NP(=O)(O)O)[C@@H](O)[C@H]2O)c(=O)[nH]1` [GMPPNP] was tested, and the “Co(II) titration UV-vis at 339 nm and gel filtration/ICP-MS” value (CobW [3]) was “binding of guanine nucleotides to CobW promotes tight coordination of two metal ions”.
In the case of `Nc1nc2c(ncn2[C@@H]2O[C@H](COP(=O)(O)OP(=O)(O)O)[C@@H](O)[C@H]2O)c(=O)[nH]1` [GDP], the “Co(II) titration UV-vis, nucleotide-induced metal site at 339 nm” value (CobW [2]; Mg(II) 2.7 mM) is reported as “Mg^IIGDP-CobW, despite displaying identical absorbance features indicating the persistence of the cysteine-rich tetrahedral site”.

From PMC7895991, “Calculating metalation in cells reveals CobW acquires Co^II for vitamin B12 biosynthesis while related proteins prefer Zn^II” (Nature Communications, 2021)
